These results are taken from patent publication US20210040134A1, “COMBINATIONS OF MACROLIDE COMPOUNDS AND IMMUNE CHECKPOINT INHIBITORS” (ISR IMMUNE SYSTEM REGULATION HOLDING AB (PUBL), priority 2018, published 2021).

The test system of one data set is PBMCs. In words: Cytokine secretion from PBMCs (cytometric bead assay). The note with it: 2 days. It counts as cell-based, human. The procedure:
FIG. 11: Chemokine RANTES secretion (as measured by cytometric bead assay) from PBMC or macrophages stimulated with indicated compound for 48 h.
FIG. 12: IL12p70 secretion (as measured by cytometric bead assay) from PBMC or macrophages stimulated with indicated compound for 48 h.
(§1) FIG. 13: IL1 b secretion (as measured by cytometric bead assay) from PBMC, macrophages or CD4 T cells stimulated with indicated compound for 48 h.
Study 10: PBMCs and macrophages where exposed to compounds 1 or 2 for 2 days (FIG. 11).
Study 11: PBMCs and macrophages where exposed to compounds 1 and 2 for 2 days.
(§2) Study 12: PBMCs, macrophages and CD4+ T cells where exposed to compounds 1 and 2 for 2 days.

The subject of data set [1] is PBMCs from CMV infected donors. In words: IFN-gamma secretion from PBMCs of CMV infected donors with CMV antigen (cytometric bead assay). It counts as cell-based, human. The note with it: 3 days. From the text:
FIG. 9: Interferon-gamma secretion (as measured by cytometric bead assay) from PBMCs (from a CMV+ donor) grown with CMV peptides in the presence or absence of compound 1 or A for 5 days.
Study 8: PBMCs from CMV infected donors cultured in the presence of CMV antigen where either untreated or exposed to compound 1 or compound 2 for 3 days.

The nature of data set [2]: Human microsome stability assay. It counts as in vitro ADME. The note with it: pH 7.4, human liver microsomes, read-out: T½. The method, then:
Rate of metabolism in microsomes was tested as follows:
Human liver microsomes were diluted with buffer C (0.1 M Potassium Phosphate buffer, 1.0 mM EDTA, pH 7.4) to a concentration of […]. Microsomal stability studies were carried out by adding 30 μL of 1.5 μM compound spiking solution to wells (1.5 μL of 500 μM spiking solution (10 μL of 10 mM DMSO stock solution into 190 μL ACN to eventually generate final test concentration of 1 uM) and 18.75 μL of 20 mg/mL liver microsomes into 479.75 μL of Buffer C). All samples were pre-incubated for approximately 15 minutes at 37° C. Following this, the reaction was initiated by adding 15 μL of the NADPH solution (6 mM) with gentle mixing. Aliquots (40 μL) were removed at 0, 5, 15, 30 and 45 minutes and quenched with ACN containing internal standard (135 μL). Protein was removed by centrifugation (4000 rpm, 15 min) and the sample plate analysed for compound concentration by LC-MS/MS. Half-lives were then calculated by standard methods, comparing the concentration of analyte with the amount originally present.
The metabolic stability of the compounds of the invention was assessed in a standard human microsome stability assay (see general methods).

Data set [3] has as its system E. coli, S. salivarius, L. casei, B. longum, M. luteus. The data set can be described thus: MIC assay, summary over all bacterial strains tested. The format is cell-based. The note with it: any of the strains tested. The procedure: The bioactivity of macrolide compounds against 4 strains of common gut bacteria (Escherichia coli, Streptococcus salivarius subsp. salivarius, Lactobacillus casei and Bifidobacterium longum subsp. infantis) and common mammalian skin isolate Micrococcus luteus, was assessed using the Minimum Inhibitory Concentration (MIC) assay. Bacterial strains were purchased from DSMZ (Brunswick, Germany) except M. luteus which was obtained from NCIMB, and stored in 20% glycerol at −80° C. Stock solutions (100% DMSO) of positive controls (azithromycin and erythromycin), and of test compounds 1 and 2 were diluted in broth to working stock concentrations of 256 μg/ml (final assay testing concentration range 128 μg/ml to 0.00391 μg/ml). Stock solutions of all other compounds were diluted in broth to working stock concentrations of 128 μg/ml (final assay testing concentration range 64 μg/ml to 0.00195 μg/ml). Bacterial strains were cultivated in appropriate broth in an anaerobic chamber at 37° C., except for M. luteus which was incubated aerobically at 37° C. 18 h cultures were diluted in broth to an OD595 of 0.1 and then further diluted 1:10. In 96-well plates, in duplicate, 200 μl working stock of test compound was transferred to well 1 and serially diluted (1:2) in broth. 100 μl bacterial suspension was aliquoted into each well and mixed thoroughly. Appropriate sterility controls were included and plates were incubated in an anaerobic chamber, or aerobically (M. luteus) at 37° C. for 18 h. The MIC was determined to be the concentration of test compound in the first well with no visible growth.

The next data set has as its system CD4+ T cells. The data set can be described thus: IL-1 beta secretion from CD4+ T cells (cytometric bead assay). The format is cell-based, human. The note with it: 2 days. The method, then:
as §1, §2

The subject of a further data set is Caco-2 cell monolayers. In words: Caco-2 bidirectional permeability assay. The format is in vitro ADME. The note with it: Caco-2, 10 μM test article, 90 minutes. The method, then:
(§3) 10 μM Test article was added to the apical (A) surface of Caco-2 cell monolayers (in HBSS buffer with 0.3% DMSO and 5 μM LY at 37 degrees C.) and compound permeation into the basolateral (B) compartment measured following 90 minutes incubation. This was also performed in the reverse direction (basolateral to apical) to investigate active transport. LC-MS/MS is used to quantify levels of both the test and standard control compounds. Efflux ratio was calculated by dividing the B to A permeability by the A to B permeability.
(§4) Drug permeability:Papp=(VA/(Area×time))×([drug]accepter/(([drug]initial,donor)×Dilution Factor)
(§5) The permeability of the compounds of the invention was assessed in a standard caco-2 bidirectional permeability assay (see general methods).
In general terms: Passage across Caco-2 layers is used to estimate intestinal permeability.

Data set [4] is described as follows: Caco-2 bidirectional permeability assay. It counts as in vitro ADME. The note with it: human, Caco-2; B to A permeability divided by A to B permeability. The method, then: as §3, §4, §5
The next data set addresses T1, human TLR2 (Homo sapiens, UniProt O60603).
T1 construct: host or cells: recombinant HEK-293-TLR cell lines
In words: TLR2 reporter assay (HEK-293-TLR, SEAP). It counts as cell-based. The note with it: concentrations up to 20 uM. The method, then: Samples and controls were tested in duplicate on recombinant HEK-293-TLR cell lines using a cell reporter assay at Invivogen using their standard assay conditions. These cell lines functionally over-express human TLR2 protein as well as a reporter gene which is a secreted alkaline phosphatase (SEAP). The production of this reporter gene is driven by an NFkB inducible promoter. The TLR reporter cell lines activation results are given as optical density values (OD).
20 μl of each test article were used to stimulate the hTLR2 reporter cell lines in a 200 μl of final reaction volume. Samples were tested in duplicate, with at least two concentrations tested—20 uM and 10 uM.
Compounds were tested using a TLR2 reporter assay (see general methods) that measured for stimulation of the TLR2 receptor. Stimulatory effect was measured as an increase in optical density (OD) due to release of secreted alkaline phosphatase (SEAP) and is shown in table 4: […]
(In a reporter assay the amount or activity of a reporter protein is the signal.)

In a further data set the test system is C57bl/6 mice. In words: MHC class I expression on CD11b+ splenocytes of mice after i.v. injection. The format is in vivo. The note with it: spleen removed 24 h later. The method, then:
FIG. 15: % MHC class I high CD11 b+ cells in spleen of 3 individual C57bl/6 mice injected 24 h previously with indicated compound. MHC class I and CD11 b expression was measured by flow cytometry.
Study 14: Compound 1 or 2 was administered i.v. to C57bl/6 mice.

T1 sequence (O60603 21-784): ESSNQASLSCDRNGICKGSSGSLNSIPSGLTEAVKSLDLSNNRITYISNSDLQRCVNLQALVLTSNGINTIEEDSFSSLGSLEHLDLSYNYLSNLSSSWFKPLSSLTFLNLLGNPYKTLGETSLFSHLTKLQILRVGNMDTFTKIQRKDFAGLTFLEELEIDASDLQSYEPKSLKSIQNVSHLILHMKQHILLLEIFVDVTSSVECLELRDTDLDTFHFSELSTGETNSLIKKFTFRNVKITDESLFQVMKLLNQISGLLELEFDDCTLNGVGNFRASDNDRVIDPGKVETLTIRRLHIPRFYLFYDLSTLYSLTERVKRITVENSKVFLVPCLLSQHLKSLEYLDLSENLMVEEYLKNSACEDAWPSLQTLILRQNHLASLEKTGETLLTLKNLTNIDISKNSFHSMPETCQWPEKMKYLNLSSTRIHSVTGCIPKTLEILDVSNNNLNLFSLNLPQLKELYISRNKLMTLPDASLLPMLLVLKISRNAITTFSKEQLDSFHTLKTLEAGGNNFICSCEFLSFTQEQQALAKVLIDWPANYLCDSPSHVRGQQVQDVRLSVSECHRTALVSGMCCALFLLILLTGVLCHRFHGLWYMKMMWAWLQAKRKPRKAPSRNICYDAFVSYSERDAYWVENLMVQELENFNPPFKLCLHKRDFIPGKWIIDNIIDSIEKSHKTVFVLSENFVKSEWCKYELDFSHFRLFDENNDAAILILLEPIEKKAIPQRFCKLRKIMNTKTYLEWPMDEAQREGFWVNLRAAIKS

For orientation: efflux ratio means the permeability from basolateral to apical divided by that in the opposite direction, in the common usage. With `CC[C@H]1OC(=O)[C@H](C)[C@@H](O[C@H]2C[C@@H](N(C)C)[C@H](O)[C@@H](C)O2)[C@H](C)[C@@H](O)[C@](C)(O)C[C@@H](C)CN(C)[C@H](C)[C@@H](O)[C@]1(C)O` [Compound 1], in the data set with PBMCs, the “IL-1 beta secretion in PBMCs” value is “slightly” and the “IL-12p70 secretion from PBMCs” value is given as “secreted IL-12p70”. For the same compound, the IFN-gamma secretion result in [1] is “induced secretion of high levels of IFN-gamma”. The half-life at 1 uM in data set [2] was found to be 1.8 h. Also, the “antibacterial activity against the bacterial strains tested (in words)” value in data set [3] was “no antibacterial activity”. In addition, in the data set on CD4+ T cells, the “IL-1 beta secretion in CD4+ T cells” value is listed as “no IL-1 beta was induced”. Also, the Papp with Caco-2 cell monolayers is listed as 0.32 × 10^6/cm · s^−1. For the same compound, the efflux ratio at 90 minutes, 10 μM in [4] is 63. Besides, on human TLR2, the “TLR2 stimulation (in words)” value is given as “stimulated TLR2 at concentrations down to 5 uM”. For the same compound, in the data set with C57bl/6 mice, the “splenocyte cells with high MHC I expression (CD11b+)” value is “induced an increase”.
